Test results from publication PMC12040169 (PLOS Biology, 2025).

Test: in vitro
Details: human, hela cells, % viability

Structure (SMILES) | viability at 28.5 h, 10 µM [%] | viability at 28.5 h, 10 µM (bulk resorufin, single well) [%]
COc1ccccc1-c1cc(N2CCN(CC(=O)N(C)c3ccccc3)CC2)ncn1 [CBK091136] | 99 | 
CCOc1cc(S(=O)(=O)NCc2ccncc2)ccc1Br [CBK270147] | 82.3 | 
CCC1(c2ccccc2)C(=O)NC(=O)N(CCN2CCOCC2)C1=O (stereo not drawn) [CBK288379] |  | 88
COc1cc(S(=O)(=O)NCCOc2ccc(C(=O)O)cc2)c(OC)cc1Cl [CBK299825] | 92.1 | 
CN(Cc1cnn(C)c1)C(=O)C1CCCN1Cc1ccccn1 (stereo not drawn) [CBK305092] | 96 | 
CC(=O)Nc1ccc(N2CC34C=CC(O3)C(C(=O)O)C4C2=O)cc1 (stereo not drawn) [CBK287020] | 100 | 
O=S1(=O)N=C(N2CCN(Cc3ccc4c(c3)OCO4)CC2)c2ccccc21 [CBK266064] | 104 | 
CCOC(=O)C(NC(=O)C1CCC(=O)N1)c1cccc(C)c1C (stereo not drawn) [CBK305472] | 93.8 | 
O=C(CN1C(=O)/C(=C/c2ccccc2)SC1=S)Nc1cccc(C(=O)O)c1 [CBK262171] | 86.9 | 
CN1CCC[C@H]1C(=O)N1CCCC2(CCN(Cc3ccccc3)C2)C1 (stereo partly drawn) [CBK136901] | 90.7 | 
CC(=O)N1CCc2sccc2C1c1ccc(NCc2ccc(F)cc2)cc1 (stereo not drawn) [CBK286442] | 90.3 | 
O=C(Cc1ccc2c(c1)CCC2)N1CCCCC1CN1CCOCC1 (stereo not drawn) [CBK282704] | 88.8 | 
CC(=O)N1c2ccc(NC(=O)C3(C)CCCO3)cc2CC1C (stereo not drawn) [CBK282702] | 98.5 | 
Cc1cc(Cl)c(S(=O)(=O)N2CCN(c3ccccn3)CC2)cc1OCC(=O)NC1CCCCC1 [CBK266798] | 90.7 | 
CN1CCN(CCCNC(=O)c2ccc(-c3ccoc3)nc2)CC1 [CBK156257] | 93.3 | 
O=C1CCCN1CCOc1nccnc1-c1ccsc1 [CBK106759] | 89.7 | 
O=S(=O)(Nc1cccnc1)N1CCOCC1 [CBK269362] | 97.9 | 
CC(NC(=O)c1ccc(F)cc1Cl)c1ccccc1 (stereo not drawn) [CBK270317] | 89.3 | 
CCOC(=O)N1CCN(S(=O)(=O)c2cc(C(=O)O)c(Cl)cc2Cl)CC1 [CBK296975] | 96.2 | 
CC(C)OC(=O)c1ccc(NC(=O)c2csc3c2CCCC3)cc1 [CBK058649] | 106 | 
O=C(Cn1nnc(-c2ccccc2)n1)Nc1ccccc1C(=O)O [CBK264358] | 103 | 

Structure (SMILES) | viability at 28.5 h, 10 µM [%] | viability at 28.5 h, 10 µM (bulk resorufin, single well) [%]
N#CC1(c2ccccc2)CCN(C(=O)COc2ccc(F)cc2)CC1 [CBK091387] |  | 92.6
Cc1ccccc1-c1ccc2n(c1=O)C[C@H]1C[C@@H]2CN(C(=O)CCC(=O)O)C1 [CBK289181] | 111 | 
COc1cccc(C2Nc3ccc4ccccc4c3C3=C2C(=O)CC(C)(C)C3)c1OCC(=O)O (stereo not drawn) [CBK263045] | 89.8 | 
COc1cc(/C=N/NC(=O)CCNc2n[nH]c(=O)[nH]c2=O)cc(Br)c1O [CBK263494] | 88.3 | 
Cc1nc2c(Oc3ncccn3)cccn2c1N(C)C(=O)C1CCCCC1 [CBK147161] | 99.1 | 
O=C(Nc1cccnc1N1CCNCC1)c1ccc(-c2cccc(C(F)(F)F)c2)o1 [CBK034119T] | 90.1 | 
O=C1Nc2ccc(-c3ccc(Cl)cc3)cc2C(=O)N2CCN(C(=O)c3cccnc3)C[C@H]12 [CBK289590] | 107 | 
CCc1cc(C(=O)OC)c(NC(=O)CC2Nc3cccc4cccc(c34)NC2=O)s1 (stereo not drawn) [CBK267563] | 59.8 | 
O=[N+]([O-])c1cccc(CN2CCC(N3CCN(Cc4ccccc4)CC3)CC2)c1 [CBK264609G] | 93.5 | 
COc1ccc([N+](=O)[O-])cc1NC(=O)C1(c2ccc(OC)c(OC)c2)CCOCC1 [CBK266243] | 98.2 | 
O=S1(=O)CC(NCc2ccccc2)C(Nc2ccccc2)C1 (stereo not drawn) [CBK265797] | 91.7 | 
COc1ccc(OCC(O)CN2CCN(c3ccccn3)CC2)cc1 (stereo not drawn) [CBK278239C] | 81.8 | 
Nc1ncc(-c2ccc(-c3ccccc3F)cc2)c2cccnc12 [CBK067597] | 76.5 | 
Cc1ccc(S(=O)(=O)c2ccc(C)c(S(N)(=O)=O)c2)cc1S(N)(=O)=O [CBK261664] | 83.6 | 
COc1cc(CNc2nccnc2-c2cccnc2)cc(OC)c1 [CBK038061] | 105 | 
COCCOc1ccc(-c2noc([C@@H]3CCCN3)n2)cn1 [CBK288883] | 97.4 | 
COc1ccc2c(c1)cc(C(=O)NCCN1CCCCC1CO)n2C (stereo not drawn) [CBK306621] | 114 | 
CCOC(=O)C1(N)CCCC1 [CBK073836C] | 94.4 | 
CCN(CC)C(=O)C1CN2CCc3cc(OC)c(OC)cc3C2CC1OC(C)=O (stereo not drawn) [CBK022778] | 110 | 
CSc1ccc(-c2cnc(N)c(-c3ccc(C(=O)N4CCOCC4)cc3)n2)cc1 [CBK084539] | 109 | 
Cn1cnnc1C1CCCN(C(=O)NCc2cccc(F)c2)C1 (stereo not drawn) [CBK305792] | 101 | 

Structure (SMILES) | viability at 28.5 h, 10 µM [%] | viability at 28.5 h, 10 µM (bulk resorufin, single well) [%]
Cc1cc(-c2cn3cc(C(=O)NCCCCO)nc3c(=O)n2C)c(C)o1 [CBK307037] | 106 | 
O=C(c1nc[nH]n1)N1CCN(c2nccc(CCC(F)(F)F)n2)CC1 [CBK307306] | 106 | 
CCCCCCc1ccc(NS(=O)(=O)c2cc3c(NCCN(C)C)nccc3s2)cc1 [CBK038253C] | 100 | 
CCOc1ccc(NC(=O)C(C)O)c(NC(=O)c2ccccc2Cl)c1 (stereo not drawn) [CBK269678] | 92.7 | 
O=S(=O)(c1ccc2c(c1)nc1n2CCC1)N1CCOCC1 [CBK019200] | 49.6 | 
CCOc1ccc(C(O)Cn2c(=N)n(CCN3CCCCC3)c3ccccc32)cc1 (stereo not drawn) [CBK262913C] | 111 | 
CCCN1CCC(NC(C)CCCC(C)(C)O)CC1 (stereo not drawn) [CBK261932] | 99.3 | 
CCn1c(=O)n(CC(=O)NCc2cccc(F)c2)c2cccnc21 [CBK283891] | 86.4 | 
O=C(CN1C(=O)c2ccccc2C1=O)Nc1ccc(S(=O)(=O)N2CCCCCC2)cc1 [CBK266693] | 91.7 | 
O=C(NCCNc1cnccn1)c1cc(Br)ccc1F [CBK253480] | 110 | 
O=C(NCc1ccccn1)C1CCC(Cn2c(=S)[nH]c3ccccc3c2=O)CC1 (stereo not drawn) [CBK266645] | 95.6 | 
COc1ccc(CCNS(=O)(=O)c2cccc([N+](=O)[O-])c2)cc1OC [CBK263618] | 89.5 | 
Cc1ccc(-c2nccnc2OCc2ccc3c(c2)OCO3)c(C)c1 [CBK106982] | 93.1 | 
O=C(Cn1c(=O)n(Cc2cccnc2)c(=O)c2ncccc21)NC1CCCC1 [CBK287666] | 103 | 
S=c1[nH]nc(-c2ccco2)n1-c1ccc(Cl)cc1 [CBK023586] | 97.8 | 
Cc1cc(NCc2ccccc2)nc2ccccc12 [CBK262206] | 93.5 | 
COc1ccc(CCC(=O)Nc2ncn(Cc3cccc(C)c3)n2)cc1 [CBK288227] | 91.7 | 
CC(Oc1ccccc1)C(=O)N1CCN(C/C=C/c2ccccc2)CC1 (stereo not drawn) [CBK269050] | 98 | 
Cc1ccc(S(=O)(=O)N/C(=N/C(C)C(=O)O)c2ccccc2)cc1 (stereo not drawn) [CBK263099] | 92.2 | 
CC1(c2ccco2)NC(=O)N(Cc2ncc(-c3cccs3)o2)C1=O (stereo not drawn) [CBK305398] | 98.8 | 
O=C(CC(CN1CCCN(c2ncccn2)CC1)C(=O)O)NCc1ccccc1 (stereo not drawn) [CBK286856] | 87.2 | 
